Test results taken from patent publication US20240317708A1, “INHIBITORS OF TRANSGLUTAMINASES” (ZEDIRA GMBH, priority 2021, published 2024).
pIC50: −log10 of the molar value.

Experiments:
[1] = Caco-2 permeability assay (CacoReady kit); format: in vitro ADME; settings: human
Protocol: Permeability coefficients (Papp values) were obtained from Caco-2 barrier studies predicting oral/intestinal bioavailability of the tested compounds. The assays were performed by using CacoReady™ ready-to-use kits from ReadyCell according to the manufacturers protocol.

[2] = Log D shake flask method (octanol / PBS pH 7.4, HPLC); format: physicochemical; settings: octanol/phosphate-buffered saline (PBS); octanol / PBS pH 7.4, shake flask
Protocol: In order to classify the inventive compounds according to their lipophilicity, Log D values (distribution coefficient) were determined by means of the well-established shake flask method, measuring the partition of a compound between an octanol and phosphate-buffered saline (PBS, pH 7.4) by HPLC.

[3] = biological target: T1, recombinant human transglutaminase 2 (Homo sapiens, UniProt P21980); test: Transglutaminase assay (dansylcadaverine incorporation into dimethylcasein, DCC-assay); format: biochemical; settings: for pIC50: recombinant human TG2 10 nM, dansylcadaverine/dimethylcasein, 37° C.
T1 construct: purchased Zedira T022
T1 sequence (P21980 1-687): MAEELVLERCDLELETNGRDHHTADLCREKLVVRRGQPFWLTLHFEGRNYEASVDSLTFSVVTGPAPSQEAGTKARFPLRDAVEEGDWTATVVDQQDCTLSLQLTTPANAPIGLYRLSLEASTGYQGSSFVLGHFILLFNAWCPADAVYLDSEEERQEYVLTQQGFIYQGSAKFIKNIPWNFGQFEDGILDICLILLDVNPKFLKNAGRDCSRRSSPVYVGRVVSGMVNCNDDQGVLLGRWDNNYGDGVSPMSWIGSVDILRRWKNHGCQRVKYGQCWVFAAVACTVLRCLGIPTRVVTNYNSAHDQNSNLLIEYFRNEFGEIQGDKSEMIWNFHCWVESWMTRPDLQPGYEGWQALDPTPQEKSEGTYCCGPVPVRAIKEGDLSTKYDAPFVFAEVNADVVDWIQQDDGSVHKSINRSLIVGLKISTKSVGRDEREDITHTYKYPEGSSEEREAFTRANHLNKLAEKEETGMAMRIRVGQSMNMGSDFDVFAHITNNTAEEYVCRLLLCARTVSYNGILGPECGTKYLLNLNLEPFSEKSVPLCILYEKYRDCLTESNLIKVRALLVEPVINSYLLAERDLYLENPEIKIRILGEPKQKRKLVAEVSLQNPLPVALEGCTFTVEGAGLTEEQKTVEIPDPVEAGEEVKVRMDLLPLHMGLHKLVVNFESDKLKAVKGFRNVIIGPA
Protocol: For the determination of potency of inhibitors against tissue transglutaminase, the incorporation of dansylcadaverine into dimethylcasein (Zedira product T036, Lorand et al., Anal Biochem, 1971, 44:221-31) was measured using recombinant human transglutaminase 2 (Zedira Product T022).
The tissue transglutaminase is diluted in buffer (50 mM Tris-HCl, 7.5 mM CaCl2, 150 mM NaCl, pH=7.4). The final concentration of TG2 in the assay is 10 nM.
A 10 mM inhibitor stock solution is prepared in DMSO, and from this a serial 1:2-fold dilution series is prepared also in DMSO. Each of the initial dilutions is subsequently diluted 1:50-fold with buffer (50 mM Tris-HCl, 7.5 mM CaCl2, 150 mM NaCl, pH=7.4) to yield the final working dilutions containing 2% (v/v) DMSO.
15 μl of inhibitor working dilution are added per well of a 96 well microtiter plate. As control, 15 μl of a 2% (v/v) DMSO solution prepared using the buffer mentioned above are added per well.
Immediately before starting the assay, 600 μl transglutaminase working solution are added to 11.4 ml assay buffer (50 mM Tris-HCl, 10 mM CaCl2, 10 mM glutathione, 2.5% glycerol, 16.7 μM dansylcadaverine, 4 μM N,N-dimethylcasein, 200 mM NaCl, pH=8.0). 285 μl of this reaction mix are added per well containing the inhibitor.
Increase in fluorescence is measured using λex=330 nm and λem=500 nm at 37° C. for 30 min. A slope of the increase in fluorescence between 20 and 30 min is calculated for determination of the IC50 value (inhibitor concentration at which 50% of the initial activity is blocked).
Analysis of enzymatic activity is performed by calculation of the slope of an increase in fluorescence intensity. IC50 values are calculated by plotting the enzymatic activity (as percentage from control containing 2% DMSO instead of inhibitor) against the inhibitor concentration. IC50 is defined as the inhibitor concentration blocking 50% of initial enzyme activity.

| Compound | Papp [1] [×10⁻⁶ cm/s] | logD [2] | pIC50 [3] | fold more potent compared to Ref. 3 ([3]; DCC-assay IC50 ratio vs Ref. 3 (A8)) [fold] |
| --- | --- | --- | --- | --- |
| COC(=O)/C=C/CC[C@H](NC(=O)c1cncn1C)C(=O)Nc1cccn(CC(=O)NC2C3CC4CC(C3)CC2C4)c1=O (stereo partly drawn) [III-1, (S,E)-methyl 7-(1-(2-(2-adamantylamino)-2-oxoethyl)-2-oxo-1,2-dihydropyridin-3-ylamino)-6-(1-methyl-1H-imidazole-5-carboxamido)-7-oxohept-2-enoate] | < 1 | 1 to 3 | > 7.60 |  |
| COC(=O)/C=C/CC[C@H](NC(=O)c1cc2c(Br)cccc2o1)C(=O)Nc1cccn(CC(=O)NC2C3CC4CC(C3)CC2C4)c1=O (stereo partly drawn) [III-4, (S,E)-methyl 6-(4-bromobenzofuran-2-carboxamido)-7-(1-(2-(2-adamantylamino)-2-oxoethyl)-2-oxo-1,2-dihydropyridin-3-ylamino)-7-oxohept-2-enoate] | 1 to 10 | 3 to 5 | > 7.60 |  |
| COC(=O)/C=C/CC[C@H](NC(=O)c1cc2ccccc2[nH]1)C(=O)Nc1cccn(CC(=O)NC2C3CC4CC(C3)CC2C4)c1=O (stereo partly drawn) [III-8, (S,E)-methyl 6-(1H-indole-2-carboxamido)-7-(1-(2-(2-adamantylamino)-2-oxoethyl)-2-oxo-1,2-dihydropyridin-3-ylamino)-7-oxohept-2-enoate] | < 1 | 3 to 5 | > 7.60 |  |
| COC(=O)/C=C/CC[C@H](NC(=O)c1[nH]c2ccccc2c1C)C(=O)Nc1cccn(CC(=O)NC2C3CC4CC(C3)CC2C4)c1=O (stereo partly drawn) [III-10, (S,E)-methyl 7-(1-(2-(2-adamantylamino)-2-oxoethyl)-2-oxo-1,2-dihydropyridin-3-ylamino)-6-(3-methyl-1H-indole-2-carboxamido)-7-oxohept-2-enoate] | 1 to 10 | 3 to 5 | > 7.60 |  |
| COC(=O)/C=C/CC[C@H](NC(=O)C1Cc2ccccc2C1)C(=O)Nc1cccn(CC(=O)NC2C3CC4CC(C3)CC2C4)c1=O (stereo partly drawn) [III-12, (S,E)-methyl 6-(2,3-dihydro-1H-indene-2-carboxamido)-7-(1-(2-(2-adamantylamino)-2-oxoethyl)-2-oxo-1,2-dihydropyridin-3-ylamino)-7-oxohept-2-enoate] | 1 to 10 | 3 to 5 | > 7.60 |  |
| COC(=O)/C=C/CC[C@H](NC(=O)c1cc(Cl)sc1Cl)C(=O)Nc1cccn(CC(=O)NC2C3CC4CC(C3)CC2C4)c1=O (stereo partly drawn) [III-13, (S,E)-methyl 6-(2,5-dichlorothiophene-3-carboxamido)-7-(1-(2-(2-adamantylamino)-2-oxoethyl)-2-oxo-1,2-dihydropyridin-3-ylamino)-7-oxohept-2-enoate] | 1 to 10 | 3 to 5 | > 7.60 |  |
| COC(=O)/C=C/CC[C@H](NC(=O)c1cn[nH]n1)C(=O)Nc1cccn(CC(=O)NC2C3CC4CC(C3)CC2C4)c1=O (stereo partly drawn) [III-102, (S,E)-methyl 7-(1-(2-(2-adamantylamino)-2-oxoethyl)-2-oxo-1,2-dihydropyridin-3-ylamino)-7-oxo-6-(1H-1,2,3-triazole-4-carboxamido)hept-2-enoate] |  |  | 6.60 to 7.60 |  |
| CCC(CC)CNC(=O)Cn1cccc(NC(=O)[C@H](CC/C=C/C(=O)OC)NC(=O)c2cncn2C)c1=O [Ref. 2, reference compound] |  |  | 6.60 to 7.60 | 80 |

Continued, values first:

| Papp [1] [×10⁻⁶ cm/s] | logD [2] | pIC50 [3] | fold more potent compared to Ref. 3 ([3]; DCC-assay IC50 ratio vs Ref. 3 (A8)) [fold] | Compound |
| --- | --- | --- | --- | --- |
| 1 to 10 | 3 to 5 | > 7.60 |  | COC(=O)/C=C/CC[C@H](NC(=O)c1oc2ccccc2c1C)C(=O)Nc1cccn(CC(=O)N[C@]23C[C@H]4C5CC6CC4[C@@H](C2)[C@@H](C6)[C@@H]5C3)c1=O (stereo in doubt) [III-74, (S,E)-methyl 7-(1-(2-(diamantane-4-amino)-2-oxoethyl)-2-oxo-1,2-dihydropyridin-3-ylamino)-6-(3-methylbenzofuran-2-carboxamido)-7-oxohept-2-enoate] |
| 1 to 10 | 3 to 5 | > 7.60 |  | COC(=O)/C=C/CC[C@H](NC(=O)c1oc2ccccc2c1C)C(=O)Nc1cccn(CC(=O)NC2C3CC4CC(C3)CC2C4)c1=O (stereo partly drawn) [III-2, (S,E)-methyl 7-(1-(2-(2-adamantylamino)-2-oxoethyl)-2-oxo-1,2-dihydropyridin-3-ylamino)-6-(3-methylbenzofuran-2-carboxamido)-7-oxohept-2-enoate] |
| 1 to 10 | 3 to 5 | > 7.60 |  | COC(=O)/C=C/CC[C@H](NC(=O)c1oc2ccccc2c1Cl)C(=O)Nc1cccn(CC(=O)NC2C3CC4CC(C3)CC2C4)c1=O (stereo partly drawn) [III-3, (S,E)-methyl 6-(3-chlorobenzofuran-2-carboxamido)-7-(1-(2-(2-adamantylamino)-2-oxoethyl)-2-oxo-1,2-dihydropyridin-3-ylamino)-7-oxohept-2-enoate] |
| 1 to 10 | 3 to 5 | > 7.60 |  | COC(=O)/C=C/CC[C@H](NC(=O)c1cc2ccccc2s1)C(=O)Nc1cccn(CC(=O)NC2C3CC4CC(C3)CC2C4)c1=O (stereo partly drawn) [III-5, (S,E)-methyl 6-(benzo[b]thiophene-2-carboxamido)-7-(1-(2-(2-adamantylamino)-2-oxoethyl)-2-oxo-1,2-dihydropyridin-3-ylamino)-7-oxohept-2-enoate] |
| 1 to 10 | 3 to 5 | > 7.60 |  | COC(=O)/C=C/CC[C@H](NC(=O)c1cc2cc(Br)ccc2s1)C(=O)Nc1cccn(CC(=O)NC2C3CC4CC(C3)CC2C4)c1=O (stereo partly drawn) [III-6, (S,E)-methyl 6-(5-bromobenzo[b]thiophene-2-carboxamido)-7-(1-(2-(2-adamantylamino)-2-oxoethyl)-2-oxo-1,2-dihydropyridin-3-ylamino)-7-oxohept-2-enoate] |
| 1 to 10 | 3 to 5 | > 7.60 |  | COC(=O)/C=C/CC[C@H](NC(=O)c1cc2cccc(F)c2s1)C(=O)Nc1cccn(CC(=O)NC2C3CC4CC(C3)CC2C4)c1=O (stereo partly drawn) [III-7, (S,E)-methyl 6-(7-fluorobenzo[b]thiophene-2-carboxamido)-7-(1-(2-(2-adamantylamino)-2-oxoethyl)-2-oxo-1,2-dihydropyridin-3-ylamino)-7-oxohept-2-enoate] |
| < 1 | 3 to 5 | > 7.60 |  | COC(=O)/C=C/CC[C@H](NC(=O)c1cc2c(F)c(F)ccc2[nH]1)C(=O)Nc1cccn(CC(=O)NC2C3CC4CC(C3)CC2C4)c1=O (stereo partly drawn) [III-9, (S,E)-methyl 6-(4,5-difluoro-1H-indole-2-carboxamido)-7-(1-(2-(2-adamantylamino)-2-oxoethyl)-2-oxo-1,2-dihydropyridin-3-ylamino)-7-oxohept-2-enoate] |
| < 1 | 3 to 5 | 6.60 to 7.60 |  | COC(=O)/C=C/CC[C@H](NC(=O)c1nc2ccccc2[nH]1)C(=O)Nc1cccn(CC(=O)NC2C3CC4CC(C3)CC2C4)c1=O (stereo partly drawn) [III-11, (S,E)-methyl 6-(1H-benzo[d]imidazole-2-carboxamido)-7-(1-(2-(2-adamantylamino)-2-oxoethyl)-2-oxo-1,2-dihydropyridin-3-ylamino)-7-oxohept-2-enoate] |
| 1 to 10 | 3 to 5 | > 7.60 |  | COC(=O)/C=C/CC[C@H](NC(=O)c1sc(C(F)(F)F)nc1C)C(=O)Nc1cccn(CC(=O)NC2C3CC4CC(C3)CC2C4)c1=O (stereo partly drawn) [III-14, (S,E)-methyl 7-(1-(2-(2-adamantylamino)-2-oxoethyl)-2-oxo-1,2-dihydropyridin-3-ylamino)-6-(4-methyl-2-(trifluoromethyl)thiazole-5-carboxamido)-7-oxohept-2-enoate] |
